{
  "source": "patent US10947213B1",
  "about": "(Merck Patent GmbH, priority 2015, dated 2021)",
  "note": "Where a name gives a salt, the structure may show the parent alone.",
  "data": [
    {"biological_target": "T1, TLR7/NFKb HEK cells (Homo sapiens, UniProt Q9NYK1)", "T1 construct": "expressed in transfected cells; host or cells: HEK cells (TLR7/NFKb reporter line)", "T1 sequence (Q9NYK1 27-1049)": "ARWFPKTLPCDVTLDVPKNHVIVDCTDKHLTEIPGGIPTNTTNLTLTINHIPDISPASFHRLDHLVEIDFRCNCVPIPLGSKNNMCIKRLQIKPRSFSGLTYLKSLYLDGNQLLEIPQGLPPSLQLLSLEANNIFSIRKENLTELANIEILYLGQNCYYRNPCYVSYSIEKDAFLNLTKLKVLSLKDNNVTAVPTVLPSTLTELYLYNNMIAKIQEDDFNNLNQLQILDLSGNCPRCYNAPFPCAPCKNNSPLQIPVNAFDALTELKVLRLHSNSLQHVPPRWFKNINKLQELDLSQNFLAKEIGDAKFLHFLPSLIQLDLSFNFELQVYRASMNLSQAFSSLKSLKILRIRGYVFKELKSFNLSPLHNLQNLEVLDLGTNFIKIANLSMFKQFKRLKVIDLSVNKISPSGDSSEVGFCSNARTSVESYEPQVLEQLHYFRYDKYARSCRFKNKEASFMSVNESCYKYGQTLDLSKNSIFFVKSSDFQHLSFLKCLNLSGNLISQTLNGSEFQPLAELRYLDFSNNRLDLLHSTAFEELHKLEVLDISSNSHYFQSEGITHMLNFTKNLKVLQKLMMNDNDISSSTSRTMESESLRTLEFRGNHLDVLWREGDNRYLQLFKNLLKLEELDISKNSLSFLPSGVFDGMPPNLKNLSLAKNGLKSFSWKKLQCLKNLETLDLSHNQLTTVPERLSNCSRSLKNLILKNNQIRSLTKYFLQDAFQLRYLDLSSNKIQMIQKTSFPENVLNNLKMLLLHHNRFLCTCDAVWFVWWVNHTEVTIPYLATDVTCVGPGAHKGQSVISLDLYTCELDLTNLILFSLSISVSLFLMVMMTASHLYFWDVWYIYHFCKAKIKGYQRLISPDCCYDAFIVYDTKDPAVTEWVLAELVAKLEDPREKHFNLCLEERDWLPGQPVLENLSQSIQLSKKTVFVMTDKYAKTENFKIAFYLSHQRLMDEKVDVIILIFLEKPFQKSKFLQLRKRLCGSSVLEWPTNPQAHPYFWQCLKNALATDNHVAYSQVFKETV", "test": "HEK Cell Assay (TLR7/NFKb reporter, Steady-Glo luciferase readout)", "format": "cell-based", "conditions": "30 min compound preincubation, then R*48 agonist for 5 hours, read-out: Potency", "summary_of_the_method": "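Steady-Glo luminescence after 5 h stimulation with R*48 agonist, following 30 min compound preincubation. Assay run in HEK cells carrying a TLR7/NFKb luciferase reporter, plated at 5000 cells/well and grown 24 h at 37° C (10% CO2) before treatment.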", "units": {"IC50": "nM"}, "values": [
      {"smiles": "CC(C)(C)CC(=O)N[C@H]1C[C@@H](C2CC2)CN(c2ccc(C#N)c3nccnc23)C1", "note": "(relative stereo) [Compound 175, cis-N-[1-(8-cyanoquinoxalin-5-yl)-5-cyclopropylpiperidin-3-yl]-3,3-dimethylbutanamide]", "IC50": "1000 to 10000"},
      {"smiles": "CC(C(=O)N[C@@H]1C[C@H](C)CN(c2ccc(C(F)(F)F)c3nccnc23)C1)N1CC(O)C1", "note": "(some centres unmarked) [Compound 297]", "IC50": "< 1000"},
      {"smiles": "C[C@H]1C[C@@H](NC(=O)CC(C)(C)CN)CN(c2ccc(C#N)c3nccnc23)C1", "note": "[Compound 277, 4-amino-N-[(3R,5S)-1-(8-cyanoquinoxalin-5-yl)-5-methylpiperidin-3-yl]-3,3-dimethylbutanamide]", "IC50": "< 1000"},
      {"smiles": "C#CCC(=O)N[C@@H]1C[C@H](C)CN(c2ccc(C(F)(F)F)c3ncccc23)C1", "note": "[Compound 473, But-3-ynoic acid [(3R,5S)-5-methyl-1-(8-trifluoromethyl-quinolin-5-yl)-piperidin-3-yl]-amide]", "IC50": "< 1000"},
      {"smiles": "N#Cc1ccc(N2CC(N)CC(C(F)(F)F)C2)c2nccnc12", "note": "(single isomer, unassigned) [Compound 82]", "IC50": "< 1000"},
      {"smiles": "C[C@H]1C[C@@H](NC(=O)CC2CC2(F)F)CN(c2ccc(C(F)F)c3nccnc23)C1", "note": "(stereo partly drawn) [Compound 322, 2-(2,2-difluorocyclopropyl)-N-[(3R,5S)-1-[8-(difluoromethyl)quinoxalin-5-yl]-5-methylpiperidin-3-yl]acetamide]", "IC50": "1000 to 10000"},
      {"smiles": "C[C@H]1C[C@@H](NCC(N)=O)CN(c2ccnc3nccnc23)C1", "note": "[Compound 121, 2-[[(3R,5S)-5-methyl-1-[pyrido[2,3-b]pyrazin-8-yl]piperidin-3-yl]amino]acetamide]", "IC50": "> 10000"},
      {"smiles": "CC(C)[C@@H](O)C(=O)N[C@@H]1C[C@H](C)CN(c2ccnc3nccnc23)C1", "note": "[Compound 23, (R)-2-hydroxy-3-methyl-N-((3R,5S)-5-methyl-1-(pyrido[2,3-b]pyrazin-8-yl)piperidin-3-yl)butanamide]", "IC50": "> 10000"},
      {"smiles": "C[C@@H]1CN(c2ccnc3nccnc23)C[C@H](CN2CCN(C)[C@@H](C)C2)O1", "note": "[Compound 53, (2S,6R)-2-(((S)-3,4-dimethylpiperazin-1-yl)methyl)-6-methyl-4-(pyrido[2,3-b]pyrazin-8-yl)morpholine]", "IC50": "< 1000"},
      {"smiles": "CCN(CC)CCNCC1CCN(c2ccnc3cc(C(F)(F)F)ccc23)CC1", "note": "[Compound 376, N,N-Diethyl-N′-[1-(7-trifluoromethyl-quinolin-4-yl)-piperidin-4-ylmethyl]-ethane-1,2-diamine]", "IC50": "1000 to 10000"},
      {"smiles": "C[C@H]1C[C@@H](NC(=O)CN)CN(c2ccc(C#N)c3nccnc23)C1", "note": "[Compound 35, 2-amino-N-((3R,5S)-1-(8-cyanoquinoxalin-5-yl)-5-methylpiperidin-3-yl)acetamide hydrochloride]", "IC50": "< 1000"},
      {"smiles": "C[C@H]1C[C@@H](NC(=O)C(C)(C)N2CCCCC2)CN(c2ccc(C(F)(F)F)c3ncccc23)C1", "note": "[Compound 572]", "IC50": "< 1000"},
      {"smiles": "C[C@H]1C[C@@H](NC(=O)CN2CCN(C)CC2)CN(c2ccc(C(F)(F)F)c3nccnc23)C1", "note": "[Compound 259, N-[(3R,5S)-5-methyl-1-[8-(trifluoromethyl)quinoxalin-5-yl]piperidin-3-yl]-2-(4-methylpiperazin-1-yl)acetamide]", "IC50": "< 1000"},
      {"smiles": "C[C@H]1C[C@@H](NC(=O)CC2CC2(F)F)CN(c2ccc(C(F)(F)F)c3nccnc23)C1", "note": "(stereo partly drawn) [Compound 298, 2-(2,2-difluorocyclopropyl)-N-[(3R,5S)-5-methyl-1-[8-(trifluoromethyl)quinoxalin-5-yl]piperidin-3-yl]acetamide]", "IC50": "< 1000"},
      {"smiles": "C[C@H]1C[C@@H](NC(=O)C2(N)CC2)CN(c2ccc(C#N)c3nccnc23)C1", "note": "[Compound 31, 1-amino-N-((3R,5S)-1-(8-cyanoquinoxalin-5-yl)-5-methylpiperidin-3-yl)cyclopropanecarboxamide hydrochloride]", "IC50": "1000 to 10000"},
      {"smiles": "N#Cc1ccc(N2CCC(F)C(N)C2)c2nccnc12", "note": "(centres unmarked) [Compound 524, 8-(3-Amino-4-fluoro-piperidin-1-yl)-quinoxaline-5-carbonitrile hydrochloride]", "IC50": "1000 to 10000"},
      {"smiles": "C[C@H]1C[C@@H](NC(=O)CN(C)C)CN(c2ncc(F)c3nccnc23)C1", "note": "[Compound 460, 2-Dimethylamino-N-[(3R,5S)-1-(8-fluoro-pyrido[3,4-b]pyrazin-5-yl)-5-methyl-piperidin-3-yl]-acetamide]", "IC50": "> 10000"},
      {"smiles": "C[C@H]1C[C@@H](NC(=O)CC2CCN(CC(F)F)CC2)CN(c2ccc(C(F)(F)F)c3nccnc23)C1", "note": "[Compound 256, 2-[1-(2,2-difluoroethyl)piperidin-4-yl]-N-[(3R,5S)-5-methyl-1-[8-(trifluoromethyl)quinoxalin-5-yl]piperidin-3-yl]acetamide]", "IC50": "< 1000"},
      {"smiles": "CC(C)[C@H](O)C(=O)NC1CC(C2CC2)CN(c2ccc(C#N)c3nccnc23)C1", "note": "(single isomer, unassigned) [Compound 173]", "IC50": "1000 to 10000"},
      {"smiles": "CC(C)(N)CC(=O)NC1CN(c2ccc(C#N)c3nccnc23)CC(F)(F)C1", "note": "(centres unmarked) [Compound 505, 3-Amino-N-[1-(8-cyano-quinoxalin-5-yl)-5,5-difluoro-piperidin-3-yl]-3-methyl-butyramide hydrochloride]", "IC50": "1000 to 10000"},
      {"smiles": "C[C@@H]1CN(c2ccc(C#N)c3nccnc23)C[C@H](CN2CCC(N3CCCCC3)CC2)O1", "note": "[Compound 59, 8-((2S,6R)-2-(1,4′-bipiperidin-1′-ylmethyl)-6-methylmorpholino)quinoxaline-5-carbonitrile]", "IC50": "< 1000"},
      {"smiles": "C[C@H]1C[C@@H](NC2CCN(C)C2=O)CN(c2ccc(C#N)c3nccnc23)C1", "note": "(single isomer, unassigned) [Compound 124]", "IC50": "< 1000"},
      {"smiles": "CC(C(=O)N[C@@H]1C[C@H](C)CN(c2ccc(C#N)c3nccnc23)C1)N1CC(N)C1", "note": "(stereo partly drawn) [Compound 267, 2-(3-aminoazetidin-1-yl)-N-[(3R,5S)-1-(8-cyanoquinoxalin-5-yl)-5-methylpiperidin-3-yl]propanamide]", "IC50": "< 1000"},
      {"smiles": "CCN(C)CC(=O)NCC1CCN(c2ccc(C#N)c3ncccc23)CC1", "note": "[Compound 410, N-[1-(8-Cyano-quinolin-5-yl)-piperidin-4-ylmethyl]-2-(ethyl-methyl-amino)-acetamide]", "IC50": "< 1000"},
      {"smiles": "C[C@H]1C[C@@H](NC(=O)C2CCN(C)C2)CN(c2ccc(C#N)c3nccnc23)C1", "note": "(stereo partly drawn) [Compound 236, N-[(3R,5S)-1-(8-cyanoquinoxalin-5-yl)-5-methylpiperidin-3-yl]-1-methylpyrrolidine-3-carboxamide]", "IC50": "< 1000"},
      {"smiles": "C[C@H]1C[C@@H](NC(=O)CC(C)(C)CN)CN(c2ccc(C(F)(F)F)c3nccnc23)C1", "note": "[Compound 301, 4-amino-3,3-dimethyl-N-[(3R,5S)-5-methyl-1-[8-(trifluoromethyl)quinoxalin-5-yl]piperidin-3-yl]butanamide]", "IC50": "< 1000"},
      {"smiles": "C[C@H]1C[C@@H](O)CN(c2ccc(C#N)c3nccnc23)C1", "note": "[Compound 81, 8-[(3R,5S)-3-hydroxy-5-methylpiperidin-1-yl]quinoxaline-5-carbonitrile]", "IC50": "< 1000"},
      {"smiles": "CC(C(=O)N[C@@H]1C[C@H](C)CN(c2ccc(C(F)(F)F)c3ncccc23)C1)N1CCC(O)CC1", "note": "(stereo partly drawn) [Compound 289, 2-(4-hydroxypiperidin-1-yl)-N-[(3R,5S)-5-methyl-1-[8-(trifluoromethyl)quinolin-5-yl]piperidin-3-yl]propanamide]", "IC50": "< 1000"},
      {"smiles": "C[C@H]1C[C@@H](N)CN(c2ccc(C#N)c3nccnc23)C1", "note": "[Compound 12, 8-((3R,5S)-3-amino-5-methylpiperidin-1-yl)quinoxaline-5-carbonitrile]", "IC50": "< 1000"},
      {"smiles": "Cc1ncc(N2C[C@@H](C)C[C@@H](NC(=O)[C@H](O)C3CC3)C2)c2cccnc12", "note": "[Compound 558, (R)-2-Cyclopropyl-2-hydroxy-N-[(3R,5S)-5-methyl-1-(8-methyl-[1,7]naphthyridin-5-yl)-piperidin-3-yl]-acetamide]", "IC50": "1000 to 10000"},
      {"smiles": "CC(C(=O)N[C@@H]1C[C@H](C)CN(c2ccc(C(F)F)c3ncccc23)C1)N1CC(N)C1", "note": "(stereo partly drawn) [Compound 305, 2-(3-aminoazetidin-1-yl)-N-[(3R,5S)-1-[8-(difluoromethyl)quinolin-5-yl]-5-methylpiperidin-3-yl]propanamide]", "IC50": "< 1000"},
      {"smiles": "CN1CCN(CC(=O)NC2CN(c3ccc(C(F)(F)F)c4ncccc34)CC(F)(F)C2)CC1", "note": "(centres unmarked) [Compound 511, N-[5,5-Difluoro-1-(8-trifluoromethyl-quinolin-5-yl)-piperidin-3-yl]-2-(4-methyl-piperazin-1-yl)-acetamide]", "IC50": "< 1000"}
    ]}
  ]
}
